Reference: ChEMBL document CHEMBL5614421, “Structure-activity relationship study of Pseudellone C as anti-glioma agents by targeting TNF/TNFR signaling pathway” (Eur J Med Chem, 2024)

Assays:
LN-229 [1] = assay: Induction of apoptosis in human LN-229 cells assessed as early apoptotic cells at 20 uM incubated for 24 hrs by Annexin V-APC/7-AAD staining based flow cytometric analysis (reference value: 2.46 %); assay type: functional
LN-229 [2] = assay: Induction of apoptosis in human LN-229 cells assessed as necrotic cells at 20 uM incubated for 48 hrs by Annexin V-APC/7-AAD staining based flow cytometric analysis (reference value: 0.7 %); assay type: functional
LN-229 [3] = assay: Induction of apoptosis in human LN-229 cells assessed as viable cells at 20 uM incubated for 24 hrs by Annexin V-APC/7-AAD staining based flow cytometric analysis (reference value: 91.7 %); assay type: functional; conditions: read-out: Activity
U-87 MG [4] = assay: Induction of apoptosis in human U-87 MG cells assessed as late apoptotic cells at 20 uM incubated for 12 hrs by Annexin V-APC/7-AAD staining based flow cytometric analysis (reference value: 3.44 %); assay type: functional, U-87MG ATCC
LN-229 [5] = assay: Induction of apoptosis in human LN-229 cells assessed as viable cells at 20 uM incubated for 24 hrs by Annexin V-APC/7-AAD staining based flow cytometric analysis (reference value: 92.3 %); assay type: functional; conditions: read-out: Activity
[6] = Drug concentration in C57BL/6J mouse brain at 9 mg/kg,iv administration measured after 30 mins by LC-MS analysis; assay type: ADME, organism-based; conditions: read-out: Ct
LN-229 [7] = assay: Induction of apoptosis in human LN-229 cells assessed as viable cells at 5 uM incubated for 24 hrs by Annexin V-APC/7-AAD staining based flow cytometric analysis (reference value: 95.4 %); assay type: functional; conditions: read-out: Activity
LN-229 [8] = assay: Induction of apoptosis in human LN-229 cells at 10 uM incubated for 48 hrs by Annexin V-APC/7-AAD staining based flow cytometric analysis (reference value: 7.32 +/- 0.71 %); assay type: functional
LN-229 [9] = assay: Induction of apoptosis in human LN-229 cells assessed as late apoptotic cells at 20 uM incubated for 48 hrs by Annexin V-APC/7-AAD staining based flow cytometric analysis (reference value: 5.1 %); assay type: functional
U-87 MG [10] = assay: Induction of apoptosis in human U-87 MG cells assessed as necrotic cells at 20 uM incubated for 24 hrs by Annexin V-APC/7-AAD staining based flow cytometric analysis (reference value: 1 %); assay type: functional, U-87MG ATCC
U-87 MG [11] = assay: Induction of apoptosis in human U-87 MG cells assessed as early apoptotic cells at 20 uM incubated for 24 hrs by Annexin V-APC/7-AAD staining based flow cytometric analysis (reference value: 3.44 %); assay type: functional, U-87MG ATCC
LN-229 [12] = assay: Induction of apoptosis in human LN-229 cells assessed as viable cells at 20 uM incubated for 48 hrs by Annexin V-APC/7-AAD staining based flow cytometric analysis (reference value: 91.7 %); assay type: functional; conditions: read-out: Activity
U-87 MG [13] = assay: Induction of apoptosis in human U-87 MG cells at 20 uM incubated for 24 hrs by Annexin V-APC/7-AAD staining based flow cytometric analysis relative to control; assay type: functional, U-87MG ATCC
[14] = Drug concentration in C57BL/6J mouse brain at 9 mg/kg,iv administration measured after 15 mins by LC-MS analysis; assay type: ADME, organism-based; conditions: read-out: Ct
LN-229 [15] = assay: Induction of apoptosis in human LN-229 cells assessed as early apoptotic cells at 20 uM incubated for 24 hrs by Annexin V-APC/7-AAD staining based flow cytometric analysis (reference value: 0.45 %); assay type: functional
LN-229 [16] = assay: Induction of apoptosis in human LN-229 cells assessed as viable cells at 10 uM incubated for 24 hrs by Annexin V-APC/7-AAD staining based flow cytometric analysis (reference value: 95.4 %); assay type: functional; conditions: read-out: Activity
U-87 MG [17] = assay: Induction of apoptosis in human U-87 MG cells assessed as early apoptotic cells at 20 uM incubated for 12 hrs by Annexin V-APC/7-AAD staining based flow cytometric analysis (reference value: 0.94 %); assay type: functional, U-87MG ATCC
U-87 MG [18] = assay: Induction of apoptosis in human U-87 MG cells assessed as viable cells at 20 uM incubated for 24 hrs by Annexin V-APC/7-AAD staining based flow cytometric analysis (reference value: 94 %); assay type: functional, U-87MG ATCC; conditions: read-out: Activity
U-87 MG [19] = assay: Induction of apoptosis in human U-87 MG cells assessed as late apoptotic cells at 20 uM incubated for 24 hrs by Annexin V-APC/7-AAD staining based flow cytometric analysis (reference value: 3.44 %); assay type: functional, U-87MG ATCC
U-87 MG [20] = assay: Induction of apoptosis in human U-87 MG cells assessed as necrotic cells at 5 uM incubated for 24 hrs by Annexin V-APC/7-AAD staining based flow cytometric analysis (reference value: 0.21 %); assay type: functional, U-87MG ATCC
U-87 MG [21] = assay: Induction of apoptosis in human U-87 MG cells assessed as early apoptotic cells at 5 uM incubated for 24 hrs by Annexin V-APC/7-AAD staining based flow cytometric analysis (reference value: 1.59 %); assay type: functional, U-87MG ATCC
U-87 MG [22] = assay: Induction of apoptosis in human U-87 MG cells assessed as early apoptotic cells at 20 uM incubated for 24 hrs by Annexin V-APC/7-AAD staining based flow cytometric analysis (reference value: 1.59 %); assay type: functional, U-87MG ATCC
LN-229 [23] = assay: Induction of apoptosis in human LN-229 cells assessed as necrotic cells at 20 uM incubated for 24 hrs by Annexin V-APC/7-AAD staining based flow cytometric analysis (reference value: 0.7 %); assay type: functional
LN-229 [24] = assay: Induction of apoptosis in human LN-229 cells assessed as early apoptotic cells at 20 uM incubated for 48 hrs by Annexin V-APC/7-AAD staining based flow cytometric analysis (reference value: 2.46 %); assay type: functional
LN-229 [25] = assay: Induction of apoptosis in human LN-229 cells assessed as upregulation of cleaved caspase-3 expression incubated for 24 hrs by Western blot analysis; assay type: functional, cell-based
LN-229 [26] = assay: Induction of apoptosis in human LN-229 cells assessed as early apoptotic cells at 5 uM incubated for 24 hrs by Annexin V-APC/7-AAD staining based flow cytometric analysis (reference value: 0.45 %); assay type: functional
LN-229 [27] = assay: Antiproliferative activity against human LN-229 cells assessed as inhibition of cell growth incubated for 68 hrs by CCK-8 assay; assay type: functional, cell-based; conditions: LN-229, 68 h
U-87 MG [28] = assay: Induction of apoptosis in human U-87 MG cells assessed as necrotic cells at 20 uM incubated for 48 hrs by Annexin V-APC/7-AAD staining based flow cytometric analysis (reference value: 1 %); assay type: functional, U-87MG ATCC
LN-229 [29] = assay: Induction of apoptosis in human LN-229 cells assessed as viable cells at 20 uM incubated for 12 hrs by Annexin V-APC/7-AAD staining based flow cytometric analysis (reference value: 91.7 %); assay type: functional; conditions: read-out: Activity
U-87 MG [30] = assay: Induction of apoptosis in human U-87 MG cells assessed as necrotic cells at 10 uM incubated for 24 hrs by Annexin V-APC/7-AAD staining based flow cytometric analysis (reference value: 0.21 %); assay type: functional, U-87MG ATCC
LN-229 [31] = assay: Induction of apoptosis in human LN-229 cells assessed as early apoptotic cells at 20 uM incubated for 24 hrs by Annexin V-APC/7-AAD staining based flow cytometric analysis (reference value: 0.91 %); assay type: functional
U-87 MG [32] = assay: Induction of apoptosis in human U-87 MG cells assessed as necrotic cells at 20 uM incubated for 24 hrs in presence of R7050 by Annexin V-APC/7-AAD staining based flow cytometric analysis (reference value: 3.85 %); assay type: functional, U-87MG ATCC
U-87 MG [33] = assay: Induction of apoptosis in human U-87 MG cells assessed as late apoptotic cells at 20 uM incubated for 24 hrs by Annexin V-APC/7-AAD staining based flow cytometric analysis (reference value: 7.7 %); assay type: functional, U-87MG ATCC

Compound `CCCCCCCNC(=O)[C@H](Cc1c[nH]c2ccccc12)NC(=O)C(C)(c1c[nH]c2ccccc12)c1c[nH]c2ccccc12` has an Activity (LN-229 [1]) of 13%, an Activity (LN-229 [2]) of 1.9% and a viability at 20 µM (LN-229 [3]) of 81.7%. It also gave an Activity (U-87 MG [4]) of 3.62%, a viability at 20 µM (LN-229 [5]) of 66.2% and a concentration at 0.5 h [6] of 241 ng/g. For the same compound, the viability at 5 µM (LN-229 [7]) was 95%, the Activity (LN-229 [8]) was 61.42% and the Activity (LN-229 [9]) was 41.9%. It also gave an Activity (U-87 MG [10]) of 1.37%, an Activity (U-87 MG [11]) of 16.8% and a viability at 20 µM (LN-229 [12]) of 37.7%. The Activity (U-87 MG [13]) was 24.89%, the concentration at 0.25 h [14] was 91 ng/g and the Activity (LN-229 [15]) was 13.8%. The viability at 10 µM (LN-229 [16]) was 88.1%, the Activity (U-87 MG [17]) was 1.53% and the viability at 20 µM (U-87 MG [18]) was 74.3%. The Activity (U-87 MG [19]) was 4.03%, the Activity (U-87 MG [20]) was 0.14% and the Activity (U-87 MG [21]) was 2.06%. It also gave an Activity (U-87 MG [22]) of 13.7%, an Activity (LN-229 [23]) of 0.87% and an Activity (LN-229 [24]) of 18.5%. The Activity (LN-229 [25]) was “Dose-Dependent Effect”, the Activity (LN-229 [26]) was 0.82% and the IC50 (LN-229 [27]) was 10.8 µM. The Activity (U-87 MG [28]) was 4.65%, the viability at 20 µM (LN-229 [29]) was 92.7% and the Activity (U-87 MG [30]) was 0.21%. The Activity (LN-229 [31]) was 24.2%, the Activity (U-87 MG [32]) was 0.86% and the Activity (U-87 MG [33]) was 10%.
